Tests used:
Type in all cases: biochemical, E. coli K12
[1] = biological target: T1, L-aspartate-α-decarboxylase (Escherichia coli, UniProt P0A790); assay: Bioconversion of 0.5M D/L-aspartate with NS3291 cells (Example 3)
T1 construct: expressed in transfected cells; host or cells: E. coli W3110 transformed with pIF309 = strain NS3291 (ATCC 98675), whole cells
Procedure: 66.5 g (0.5M) D/L-aspartate (Sigma, A-9006) was weighed into a 2 L beaker and the pH adjusted to 7.0 with 10N NaOH. The volume was brought to 963 ml with deionized H2 O. 137 ml of cells (NS 3291, described above) were added at a packed cell volume ("PCV") of 7.31 g/10 ml cells resulting in a final volume of 1.1 L. Samples (approximately 1 ml each) were removed over time, centrifuged and the supernatant fluid was analyzed by HPLC for D- and L-aspartic acid content.
In all of the Examples herein, D- and L-aspartic acid isomers were quantified by HPLC using the following precolumn derivatization method. Aspartic acid was converted into diastereomers using ortho-phthalaldehyde and N-acetyl-L-cysteine. Separation of the diastereomers was achieved on a Supelcosil™ LC-18DB, 3μ, 150×4.6 mm column using a mobile phase of A: 20% methanol/80% triethylamine phosphate and B: methanol, and a step gradient as follows: […]
Retention times were 4.19 minutes and 4.54 minutes for D-aspartic acid and L-aspartic acid, respectively.
Samples from bioconversions were centrifuged to remove cells in a microcentrifuge and the supernatant fluid diluted appropriately such that the value determined from the HPLC fell within the linear region of the standard curve. These dilutions were usually between 1:100 and 1:200, made with deionized water.

[2] = biological target: T1, L-aspartate-α-decarboxylase; assay: 1.0M D/L-aspartate, 100 g/l cells, reaction A (Example 6); conditions: for concentration in supernatant fluid: 1.0M, 100 g/l cells, 37° C.
Procedure: (§1) 1.0M D/L-aspartate was tested as a substrate for two enzyme cell loads, 100 g/l cells, referred to here as reaction "A", and 50 g/l cells, referred to here as reaction "B".
(§2) 133.1 g of D/L-aspartic acid was dissolved in approximately 600 ml deionized H2 O and pH was adjusted to 7.0 with NaOH, using 100 ml of 10N NaOH and a small amount of 1.0N NaOH. The substrate for reaction A was brought to 963 ml with deionized H2 O. The reaction was started with 137 ml cells that were stored in the cold room. For reaction B, the substrate was brought to a volume of 981.5 ml. The reaction was started with […] cells.
(§3) Both reactions were carried out in 2 L fermentors at pH 7.0 without constant adjustments and at 37° C. Samples were removed over time, centrifuged and the supernatant fluid was diluted and submitted for D- and L-aspartic acid HPLC analysis.

[3] = biological target: T1, L-aspartate-α-decarboxylase; assay: 1.0M D/L-aspartate, 50 g/l cells, reaction B (Example 6); conditions: 37° C.
Procedure: as §1, §2, §3

[4] = biological target: T1, L-aspartate-α-decarboxylase; assay: Temperature study, 45° C. (Example 9); conditions: 1.0M, 100 g/l cells
Procedure: (§4) 133.1 g (1 mol) of D/L-aspartic acid was dissolved in deionized H2 O and the pH was adjusted to 7.0 with 10N NaOH, approximately 100 ml. Cells, freshly thawed from -80° C., were added to achieve a final concentration of 100 g/l. Three 2 L fermentors were each charged with 963 ml of substrate solution and 137 ml of cells and then heated to 37° C. and 45° C. while mixing at 300 rpm or heated to 50° C. while mixing at 450 rpm. Samples, approximately 1 ml, were removed over time and pH adjusted to 7.0 with either NaOH or HCl. After centrifugation to remove cells, the supernatant fluid was analyzed for both D- and L-aspartic acid.

[5] = biological target: T1, L-aspartate-α-decarboxylase; assay: Temperature study, 50° C. (Example 9); conditions: 1.0M, 100 g/l cells
Procedure: as §4

T1 sequence (P0A790 25-126): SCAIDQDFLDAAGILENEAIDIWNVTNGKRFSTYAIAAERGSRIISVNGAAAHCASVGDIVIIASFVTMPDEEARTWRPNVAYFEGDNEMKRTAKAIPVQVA
T1 sequence (P0A790 1-24): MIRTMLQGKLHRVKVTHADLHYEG

SMILES: N[C@@H](CC(=O)O)C(=O)O [L-Asp, L-aspartic acid]
- percent remaining ([1]; 5.5000 hr): 41.739%
- percent remaining ([1]; 24.500 hr): 0.5888%
- percent remaining ([1]; 26.500 hr): 0.4157%
- percent remaining ([1]; 32.500 hr): 0.2078%
- percent remaining ([1]; 47.500 hr): 0.1039%
- percent remaining ([1]; 52.000 hr): 0.06928%
- percent remaining ([1]; 68.000 hr): 1.4894%
- concentration in supernatant fluid ([2]; 0.0000 hr): 54.850 mg/mL
- concentration in supernatant fluid ([2]; 0.0000 hr, listed as L-aspartate): 53.6 mg/mL
- concentration in supernatant fluid ([2]; 2.0000 hr): 49.340 mg/mL
- concentration in supernatant fluid ([2]; 4.5000 hr): 50.710 mg/mL
- concentration in supernatant fluid ([2]; 7.0000 hr): 50.230 mg/mL
- concentration in supernatant fluid ([2]; 22.500 hr): 54.490 mg/mL
- concentration in supernatant fluid ([2]; 24.000 hr): 50.780 mg/mL
- concentration in supernatant fluid ([2]; 31.000 hr): 51.450 mg/mL
- concentration in supernatant fluid ([2]; 37.500 hr): 53.850 mg/mL
- concentration in supernatant fluid ([2]; 47.000 hr): 52.370 mg/mL
- concentration in supernatant fluid ([2]; 50.500 hr): 51.080 mg/mL
- concentration in supernatant fluid ([2]; 53.800 hr): 46.500 mg/mL
- concentration in supernatant fluid ([2]; 58.000 hr): 50.040 mg/mL
- concentration in supernatant fluid ([2]; 70.000 hr): 52.400 mg/mL
- concentration in supernatant fluid ([2]; 72.000 hr): 50.430 mg/mL
- concentration in supernatant fluid ([2]; 72.000 hr, listed as L-aspartate): 5.39 mg/mL
- reduction of L-aspartate ([2]; after 72.0 hours, 1.0M substrate): 90%
- concentration in supernatant fluid ([3]; 0.0000 hr): 57.440 mg/mL
- concentration in supernatant fluid ([3]; 2.0000 hr): 53.770 mg/mL
- concentration in supernatant fluid ([4]; 0.000 hr): 54.410 mg/mL
- percent remaining ([4]; 2.5000 hr): 92.079%
- concentration in supernatant fluid ([4]; 4.0000 hr): 47.110 mg/mL
- percent remaining ([4]; 4.0000 hr): 86.583%
- concentration in supernatant fluid ([4]; 6.0000 hr): 43.130 mg/mL
- percent remaining ([4]; 6.0000 hr): 79.269%
- concentration in supernatant fluid ([4]; 8.0000 hr): 39.310 mg/mL
- percent remaining ([4]; 8.0000 hr): 72.248%
- concentration in supernatant fluid ([4]; 10.000 hr): 36.800 mg/mL
- percent remaining ([4]; 10.000 hr): 67.635%
- concentration in supernatant fluid ([4]; 12.000 hr): 34.540 mg/mL
- percent remaining ([4]; 12.000 hr): 63.481%
- concentration in supernatant fluid ([4]; 20.000 hr): 24.690 mg/mL
- percent remaining ([4]; 20.000 hr): 45.378%
- concentration in supernatant fluid ([4]; 24.000 hr): 23.210 mg/mL
- percent remaining ([4]; 24.000 hr): 42.658%
- concentration in supernatant fluid ([4]; 29.000 hr): 21.700 mg/mL
- percent remaining ([4]; 29.000 hr): 39.882%
- concentration in supernatant fluid ([4]; 34.000 hr): 19.310 mg/mL
- percent remaining ([4]; 34.000 hr): 35.490%
- concentration in supernatant fluid ([4]; 44.000 hr): 15.800 mg/mL
- percent remaining ([4]; 44.000 hr): 29.039%
- concentration in supernatant fluid ([4]; 48.000 hr): 16.700 mg/mL
- percent remaining ([4]; 48.000 hr): 30.822%
- concentration in supernatant fluid ([4]; 68.000 hr): 16.050 mg/mL
- percent remaining ([4]; 68.000 hr): 29.498%
- concentration in supernatant fluid ([4]; 92.000 hr): 13.370 mg/mL
- percent remaining ([4]; 92.000 hr): 24.573%
- concentration in supernatant fluid ([5]; 0.000 hr): 100.0 mg/mL
- concentration in supernatant fluid ([5]; 1.000 hr): 98.93 mg/mL
- percent remaining ([5]; 1.000 hr): 108.9%
- concentration in supernatant fluid ([5]; 3.000 hr): 105.7 mg/mL
- percent remaining ([5]; 3.000 hr): 83.78%
- concentration in supernatant fluid ([5]; 5.0000 hr): 106.0 mg/mL
- percent remaining ([5]; 5.0000 hr): 73.63%
- concentration in supernatant fluid ([5]; 7.000 hr): 106.6 mg/mL
- percent remaining ([5]; 7.000 hr): 73.63%
- concentration in supernatant fluid ([5]; 9.000 hr): 107.3 mg/mL
- percent remaining ([5]; 9.000 hr): 70.13%
- concentration in supernatant fluid ([5]; 13.50 hr): 108.4 mg/mL
- percent remaining ([5]; 13.50 hr): 70.54%
- concentration in supernatant fluid ([5]; 23.00 hr): 103.3 mg/mL
- percent remaining ([5]; 23.00 hr): 65.98%
- concentration in supernatant fluid ([5]; 25.00 hr): 109.0 mg/mL
- percent remaining ([5]; 25.00 hr): 65.73%
- concentration in supernatant fluid ([5]; 27.00 hr): 103.6 mg/mL
- percent remaining ([5]; 27.00 hr): 55.48%
- concentration in supernatant fluid ([5]; 32.00 hr): 104.4 mg/mL
- percent remaining ([5]; 32.00 hr): 53.33%
- concentration in supernatant fluid ([5]; 37.50 hr): 106.5 mg/mL
- percent remaining ([5]; 37.50 hr): 58.82%
- percent remaining ([5]; 47.00 hr): 52.77%
- concentration in supernatant fluid ([5]; 52.00 hr): 107.0 mg/mL
- percent remaining ([5]; 52.00 hr): 56.28%
- concentration in supernatant fluid ([5]; 57.00 hr): 119.4 mg/mL
- percent remaining ([5]; 57.00 hr): 66.89%
- concentration in supernatant fluid ([5]; 71.00 hr): 104.2 mg/mL
- percent remaining ([5]; 71.00 hr): 52.65%
- concentration in supernatant fluid ([5]; 77.00 hr): 105.4 mg/mL
- percent remaining ([5]; 77.00 hr): 53.35%
- concentration in supernatant fluid ([5]; 81.00 hr): 104.6 mg/mL
- percent remaining ([5]; 81.00 hr): 52.69%
- concentration in supernatant fluid ([5]; 99.75 hr): 108.1 mg/mL
- percent remaining ([5]; 99.75 hr): 53.93%

Reference: patent US5834259A, “Process and composition for preparing D-aspartic acid” (Monsanto Company, priority 1996, dated 1998)
